According to patent EP0501870A1, “New pharmaceutical compositions, particularly for the treatment of functional infections of the large intestines, and process for obtaining them” (SOCIETE CIVILE BIOPROJET, priority 1991, dated 1992):

Columns and labels:
motricité colique = assay: Post-prandial colonic motor activity recorded by strain gauges; assay type: in vivo, chien; conditions: dog, mean and sd of 8 values
Description: Chez le chien, en période post-prandiale, le mélange des deux isomères [R] 65 % [S]

[1] = target: T1, enképhalinase plasmatique (Homo sapiens, UniProt P08473); assay: Plasma enkephalinase activity over time after a single oral dose; assay type: in vivo, volontaire sain; conditions: healthy volunteer; for Activité enképhalinase plasmatique T3O' / Activité enképhalinase plasmatique T1h / Activité enképhalinase plasmatique T8h / Activité enképhalinase plasmatique TO: 30 mg oral single dose; for Activité enképhalinase plasmatique T3O': 30 min; for Activité enképhalinase plasmatique T3O' / Activité enképhalinase plasmatique T1h / Activité enképhalinase plasmatique T8h: * p < 0.05 vs TO; for Activité enképhalinase plasmatique T1h: 1 h; for Activité enképhalinase plasmatique T8h: 8 h; for Activité enképhalinase plasmatique TO: time zero (baseline)
T1 construct: from tissue; host or cells: plasma of healthy volunteers
T1 sequence (P08473 whole entry): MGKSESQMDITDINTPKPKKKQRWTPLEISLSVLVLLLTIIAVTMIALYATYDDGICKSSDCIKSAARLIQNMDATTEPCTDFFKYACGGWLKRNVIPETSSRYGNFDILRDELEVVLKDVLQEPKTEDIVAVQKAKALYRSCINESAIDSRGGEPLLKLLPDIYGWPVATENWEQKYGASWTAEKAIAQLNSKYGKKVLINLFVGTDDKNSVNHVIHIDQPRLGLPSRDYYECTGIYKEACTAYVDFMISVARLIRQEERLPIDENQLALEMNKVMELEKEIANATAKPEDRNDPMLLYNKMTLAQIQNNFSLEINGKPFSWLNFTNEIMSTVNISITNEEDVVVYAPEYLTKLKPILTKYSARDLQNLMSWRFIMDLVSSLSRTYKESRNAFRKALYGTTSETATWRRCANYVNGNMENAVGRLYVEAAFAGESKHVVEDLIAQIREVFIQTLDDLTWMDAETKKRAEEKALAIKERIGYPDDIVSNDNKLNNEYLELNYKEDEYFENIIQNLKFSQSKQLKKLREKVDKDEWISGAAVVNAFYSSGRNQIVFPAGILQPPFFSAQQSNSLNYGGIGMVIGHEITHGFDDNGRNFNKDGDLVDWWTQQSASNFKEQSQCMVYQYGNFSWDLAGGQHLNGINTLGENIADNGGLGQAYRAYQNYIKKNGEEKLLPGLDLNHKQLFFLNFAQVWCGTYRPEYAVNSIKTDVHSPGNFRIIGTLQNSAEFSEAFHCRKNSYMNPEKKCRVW
Experimental: Chez le volontaire sain, l'activité enzymatique plasmatique a été évaluée en fonction du temps pour suivre l'absorption et la durée de vie des inhibiteurs étudiés, après administration orale d'un dose unique de 30 mg.
Comparaison des inhibitions enképhalinasiques plasmatiques après administration des différents composés à la dose de 30 mg par voie orale.

enképhalinase [2] = conditions: type of constant (IC50/Ki) not given; read-out: activité inhibitrice de l'enképhalinase; cited from earlier work
Sequence of enképhalinase (P08473 whole entry, species assumed): as the sequence (P08473 whole entry) above

A.C.E. = A.C.E. (Homo sapiens, UniProt P12821); conditions: cited from earlier work
Sequence of A.C.E. (P12821 30-1306, species assumed): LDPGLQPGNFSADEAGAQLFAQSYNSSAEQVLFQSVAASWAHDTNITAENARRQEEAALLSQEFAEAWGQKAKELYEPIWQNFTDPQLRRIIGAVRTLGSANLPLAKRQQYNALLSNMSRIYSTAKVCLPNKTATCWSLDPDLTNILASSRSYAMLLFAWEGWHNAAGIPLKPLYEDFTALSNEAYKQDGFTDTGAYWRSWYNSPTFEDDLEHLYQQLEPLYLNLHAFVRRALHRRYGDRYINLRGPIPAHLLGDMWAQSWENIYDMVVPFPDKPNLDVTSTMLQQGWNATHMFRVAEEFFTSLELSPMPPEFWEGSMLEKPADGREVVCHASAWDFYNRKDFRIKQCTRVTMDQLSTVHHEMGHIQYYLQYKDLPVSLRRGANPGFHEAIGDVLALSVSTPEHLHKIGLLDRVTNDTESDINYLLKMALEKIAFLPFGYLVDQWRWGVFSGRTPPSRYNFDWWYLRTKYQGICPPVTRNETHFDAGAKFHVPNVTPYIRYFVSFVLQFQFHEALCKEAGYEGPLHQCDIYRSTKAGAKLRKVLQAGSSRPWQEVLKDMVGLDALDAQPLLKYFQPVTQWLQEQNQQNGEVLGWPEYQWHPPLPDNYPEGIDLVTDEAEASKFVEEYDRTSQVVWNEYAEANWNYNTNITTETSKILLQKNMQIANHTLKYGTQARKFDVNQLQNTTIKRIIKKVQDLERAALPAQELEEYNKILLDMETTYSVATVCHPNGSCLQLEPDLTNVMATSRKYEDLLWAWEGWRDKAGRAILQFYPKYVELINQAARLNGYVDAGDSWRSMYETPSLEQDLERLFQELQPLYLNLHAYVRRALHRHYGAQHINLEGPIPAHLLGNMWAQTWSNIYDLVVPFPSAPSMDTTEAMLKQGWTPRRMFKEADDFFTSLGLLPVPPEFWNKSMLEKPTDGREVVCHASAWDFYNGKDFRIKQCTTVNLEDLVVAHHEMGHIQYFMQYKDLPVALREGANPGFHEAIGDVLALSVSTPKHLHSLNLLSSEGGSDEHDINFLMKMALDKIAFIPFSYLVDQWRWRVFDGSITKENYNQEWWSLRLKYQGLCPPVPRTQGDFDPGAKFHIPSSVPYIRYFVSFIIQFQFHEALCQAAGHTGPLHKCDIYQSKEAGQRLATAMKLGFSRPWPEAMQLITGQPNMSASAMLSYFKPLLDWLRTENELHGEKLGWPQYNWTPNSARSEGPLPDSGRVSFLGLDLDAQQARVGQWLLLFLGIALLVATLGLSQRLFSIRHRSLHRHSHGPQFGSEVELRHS

[3] = clinical trials in man; cited from earlier work
enképhalinase [4] = target: enképhalinase (Homo sapiens, UniProt P08473); conditions: compared with isomère [S], cited from earlier work
Sequence of enképhalinase (Homo sapiens, UniProt P08473) (P08473 whole entry, species assumed): as the sequence (P08473 whole entry) above

[5] = Multicentre clinical study in functional colopathy patients; assay type: in vivo
Description: Une étude multicentrique chez 420 colopathes fonctionnels a été entreprise avec l'acétorphan [R,S], produit pour lequel les études de toxicité chronique chez l'animal rongeur (rat) et non rongeur (singe) autorisaient des études de longue durée (supérieure à 1 mois). […]
Le critère principal d'efficacité retenu était la douleur évaluée selon une échelle analogique. Les autres paramètres pris en considération étaient les troubles du transit, qu'il s'agisse de constipation (54,4 % des cas) ou de diarrhée (39 % des cas).

[6] = plasma enkephalinase inhibition, 30 mg oral

In the case of `CC(=O)SC[C@@H](Cc1ccccc1)C(=O)NCC(=O)OCc1ccccc1` [[S], [S] acétorphan], the “Index moteur (évalué par jauge de contrainte) Avant repas (-2-0 h)” value (motricité colique; 5 mg/kg per os) is reported as 6.3 ± 1, the “Activité enképhalinase plasmatique T3O'” value [1] is reported as 28,4* pmol/ml/min and the “Activité enképhalinase plasmatique T1h” value [1] is reported as 21,7* pmol/ml/min. The “Activité enképhalinase plasmatique T8h” value [1] was 37* pmol/ml/min, the “Activité enképhalinase plasmatique TO” value [1] was 53,3 pmol/ml/min and the IC50 (enképhalinase [2]) was 2.2 nM. For the same compound, the “activité inhibitrice de l'A.C.E.” value (A.C.E.) was “résidant essentiellement dans l'isomère [S]” and the effet antihypertenseur [3] was “effet antihypertenseur, démontré chez l'homme”.

For `CC(=O)SC[C@H](Cc1ccccc1)C(=O)NCC(=O)OCc1ccccc1` [[R], [R] acétorphan], the “Index moteur (évalué par jauge de contrainte) Avant repas (-2-0 h)” value (motricité colique; 10 mg/kg per os) was 5.7 ± 0.8, the “Index moteur (évalué par jauge de contrainte) Après repas (2 - 10 h)” value (motricité colique; 10 mg/kg per os, * p < 0.01 vs control) was 15.2 ± 2.4 and the “Activité enképhalinase plasmatique T3O'” value [1] was 40,0 pmol/ml/min. For the same compound, the “Activité enképhalinase plasmatique T1h” value [1] was 32,4* pmol/ml/min, the “Activité enképhalinase plasmatique T8h” value [1] was 46,1 pmol/ml/min and the “Activité enképhalinase plasmatique TO” value [1] was 52,3 pmol/ml/min. For the same compound, the “durée d'action” value [1, 6] was “plus courte que le dérivé [S] et le mélange [R] + [S]”, the “effet maximum [Cmax]” value [1, 6] was “plus faible” and the IC50 (enképhalinase [2]) was 1.7 nM. The “activité inhibitrice de l'A.C.E.” value (A.C.E.) was “dénué d'effet sur l'A.C.E”, the “durée d'action vis-à-vis de l'enképhalinase” value (enképhalinase [4]) was “environ trois fois moins longue que celle de l'isomère [S]” and the effet maximal (enképhalinase [4]; enkephalinase inhibition) was “moins intense”.

With `CC(=O)SCC(Cc1ccccc1)C(=O)NCC(=O)OCc1ccccc1` (racemic) [acétorphan] the “% d'amélioration après acétorphan 100 mg X 3, Ballonnement” value ([5]; 1 mois (420 sujets)) was 60%, the “% d'amélioration après acétorphan 100 mg X 3, Douleur” value ([5]; 1 mois (420 sujets)) was 70% and the “% d'amélioration après acétorphan 100 mg X 3, Troubles du transit” value ([5]; 1 mois (420 sujets)) was 50%. The “% d'amélioration après acétorphan 100 mg X 3, Ballonnement” value ([5]; 2 mois (115 sujets)) was 80%, the “% d'amélioration après acétorphan 100 mg X 3, Douleur” value ([5]; 2 mois (115 sujets)) was 84,3% and the “% d'amélioration après acétorphan 100 mg X 3, Troubles du transit” value ([5]; 2 mois (115 sujets)) was 81,5%. The “% d'amélioration après acétorphan 100 mg X 3, Ballonnement” value ([5]; 3 mois (40 sujets)) was 90%, the “% d'amélioration après acétorphan 100 mg X 3, Douleur” value ([5]; 3 mois (40 sujets)) was 87,5% and the “% d'amélioration après acétorphan 100 mg X 3, Troubles du transit” value ([5]; 3 mois (40 sujets)) was 94%. The “sujets constipés au stade 3” value ([5]; after one month of treatment) was 0,9%, the “sujets diarrhéiques présentant une diarrhée objective et importante (d'intensité 2 et 3)” value ([5]; after one month of treatment, 20 % before treatment) was 2,4% and the “sujets constipés souffrant de constipation importante (stades 2 et 3)” value ([5]; after one month of treatment, 32 % before treatment) was 12,7%.
